Source: patent publication US20250171437A1 (Agios Pharmaceuticals,Inc., priority 2022, published 2025)

Biological target: T1, human PAH with the R408W mutation (A375 R408W cells) (Homo sapiens, UniProt P00439, R408W)
T1 construct: expressed in transfected cells
T1 sequence (P00439 1-452 R408W): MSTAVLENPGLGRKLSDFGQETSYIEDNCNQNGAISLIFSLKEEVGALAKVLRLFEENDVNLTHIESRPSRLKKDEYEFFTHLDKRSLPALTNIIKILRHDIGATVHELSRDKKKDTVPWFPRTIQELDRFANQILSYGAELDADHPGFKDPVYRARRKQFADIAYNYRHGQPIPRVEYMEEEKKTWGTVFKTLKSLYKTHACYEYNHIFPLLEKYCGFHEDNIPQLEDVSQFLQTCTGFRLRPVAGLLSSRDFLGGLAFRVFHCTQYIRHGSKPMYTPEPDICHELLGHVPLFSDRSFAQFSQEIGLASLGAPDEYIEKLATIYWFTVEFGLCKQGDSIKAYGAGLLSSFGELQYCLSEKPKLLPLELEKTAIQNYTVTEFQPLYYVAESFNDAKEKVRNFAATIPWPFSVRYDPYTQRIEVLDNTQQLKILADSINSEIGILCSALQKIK
Assay: Cell Based Phenylalanine Flux Assay
Conditions: 24 hrs with compound, then 20 μM sepiapterin and 800 μM 13C9,15N-Phenylalanine for 4 hours, 13C-Tyrosine by LC-MS, average where tested multiple times
In short: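 Puromycin-selected A375 line, lentiviral hPAH R408W; cmpd 24 h, 37 °C, 5% CO2, 0.5% DMSO; then 20 μM sepiapterin + 800 μM 13C9,15N-Phe, 4 h; media extracted in 80% MeCN; 13C-Tyr by LC-MS; AC50 from 10-pt curves.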

[1] = A375 cells expressing R408W PAH

SMILES: O=C(c1nnc(-c2cnccn2)o1)N1CCc2[nH]cnc2[C@H]1c1nc2cc(F)ccc2o1 [Example 628, (S)-(4-(5-fluorobenzo[d]oxazol-2-yl)-6,7-dihydro-1H-imidazo[4,5-c]pyridin-5(4H)-yl)(5-(pyrazin-2-yl)-1,3,4-oxadiazol-2-yl)methanone]
- AC50 (A375 R408W cells): 1000 to 5000 nM

SMILES: O=C(c1cnn(CC(F)(F)F)c1C(F)F)N1CCc2[nH]cnc2[C@H]1c1nc2cc(F)ccc2o1 [Example 183, (S)-(5-(difluoromethyl)-1-(2,2,2-trifluoroethyl)-1H-pyrazol-4-yl)(4-(5-fluorobenzo[d]oxazol-2-yl)-6,7-dihydro-1H-imidazo[4,5-c]pyridin-5(4H)-yl)methanone]
- AC50 (A375 R408W cells): 500 to 1000 nM

SMILES: Cc1ccc2nc(C3c4nc[nH]c4CCN3C(=O)c3nnc(C(C)(C)O)o3)oc2c1 (stereo not shown)
- AC50 [1]: ≥ 5000 nM

SMILES: O=C(c1ocnc1C(F)(F)F)N1CCc2[nH]cnc2[C@@H]1c1nc2ccc(Br)cc2o1 [Example 144, (R)-(4-(6-bromobenzo[d]oxazol-2-yl)-6,7-dihydro-1H-imidazo[4,5-c]pyridin-5(4H)-yl)(4-(trifluoromethyl)oxazol-5-yl)methanone]
- AC50 (A375 R408W cells): ≤ 500 nM

SMILES: Cc1ccc2oc([C@H]3c4nc[nH]c4CCN3C(=O)c3nnc(-c4ccc(F)cn4)o3)nc2c1 [Example 100, (R)-(5-(5-fluoropyridin-2-yl)-1,3,4-oxadiazol-2-yl)(4-(5-methylbenzo[d]oxazol-2-yl)-6,7-dihydro-1H-imidazo[4,5-c]pyridin-5(4H)-yl)methanone]
- AC50 (A375 R408W cells): 1000 to 5000 nM

SMILES: COCCNc1ccc2c(C(=O)N3CCc4[nH]cnc4C3c3nc4cc(F)ccc4o3)cnn2c1 (stereo not shown)
- AC50 [1]: ≥ 5000 nM

SMILES: Cc1nc(C(C)(C)C#N)oc1C(=O)N1CCc2[nH]cnc2[C@@H]1c1nc2cc(F)ccc2o1 [Example 186, (R)-2-(5-(4-(5-fluorobenzo[d]oxazol-2-yl)-4,5,6,7-tetrahydro-1H-imidazo[4,5-c]pyridine-5-carbonyl)-4-methyloxazol-2-yl)-2-methylpropanenitrile]
- AC50 (A375 R408W cells): 1000 to 5000 nM

SMILES: Cc1ccc2nc([C@@H]3c4nc[nH]c4CCN3C(=O)c3nnc(-c4ncccc4F)o3)oc2c1 [Example 679, (S)-(5-(3-fluoropyridin-2-yl)-1,3,4-oxadiazol-2-yl)(4-(6-methylbenzo[d]oxazol-2-yl)-6,7-dihydro-1H-imidazo[4,5-c]pyridin-5(4H)-yl)methanone]
- AC50 (A375 R408W cells): 500 to 1000 nM

SMILES: COCc1ncc(C(=O)N2CCc3[nH]cnc3C2c2nc3cc(F)ccc3o2)s1 (stereo not shown)
- AC50 [1]: 1000 to 5000 nM

SMILES: CC(C)(C#N)c1nc(C(F)F)c(C(=O)N2CCc3[nH]cnc3[C@@H]2c2nc3cc(F)ccc3o2)o1 [Example 160, (R)-2-(4-(difluoromethyl)-5-(4-(5-fluorobenzo[d]oxazol-2-yl)-4,5,6,7-tetrahydro-1H-imidazo[4,5-c]pyridine-5-carbonyl)oxazol-2-yl)-2-methylpropanenitrile]
- AC50 (A375 R408W cells): 500 to 1000 nM

SMILES: O=C(c1cnn2cc(N3CCC4(CC3)CC4)ccc12)N1CCc2[nH]cnc2[C@@H]1c1nc2c(F)cccc2o1 [Example 506, (R)-(6-(6-azaspiro[2.5]octan-6-yl)pyrazolo[1,5-a]pyridin-3-yl)(4-(4-fluorobenzo[d]oxazol-2-yl)-6,7-dihydro-1H-imidazo[4,5-c]pyridin-5(4H)-yl)methanone]
- AC50 (A375 R408W cells): 1000 to 5000 nM

SMILES: O=C(c1cnc(-c2ccccn2)s1)N1CCc2[nH]cnc2C1c1nc2ccc(Br)cc2o1 (stereo not shown)
- AC50 [1]: 1000 to 5000 nM

SMILES: O=C(c1nnc(-c2ncccc2F)o1)N1CCc2[nH]cnc2[C@H]1c1nc2cccc(C(F)(F)F)c2o1 [Example 840, (S)-(5-(3-fluoropyridin-2-yl)-1,3,4-oxadiazol-2-yl)(4-(7-(trifluoromethyl)benzo[d]oxazol-2-yl)-6,7-dihydro-1H-imidazo[4,5-c]pyridin-5(4H)-yl)methanone]
- AC50 (A375 R408W cells): ≤ 500 nM

SMILES: Cc1ncoc1C(=O)N1CCc2[nH]cnc2C1c1nc2cc(F)ccc2o1 (stereo not shown)
- AC50 [1]: ≥ 5000 nM

SMILES: Cn1ccc(-c2nc(C(F)F)c(C(=O)N3CCc4[nH]cnc4[C@H]3c3nc4ccccc4o3)o2)n1 [Example 761, (S)-(4-(benzo[d]oxazol-2-yl)-6,7-dihydro-1H-imidazo[4,5-c]pyridin-5(4H)-yl)(4-(difluoromethyl)-2-(1-methyl-1H-pyrazol-3-yl)oxazol-5-yl)methanone]
- AC50 (A375 R408W cells): ≤ 500 nM

SMILES: CC(C)(O)c1nnc(C(=O)N2CCc3[nH]cnc3C2c2nc3c(F)ccc(F)c3o2)o1 (stereo not shown)
- AC50 [1]: 1000 to 5000 nM

SMILES: O=C(c1oc(-c2cnccn2)nc1C(F)F)N1CCc2[nH]cnc2[C@H]1c1nc2cccc(F)c2o1 [Example 693, (S)-(4-(difluoromethyl)-2-(pyrazin-2-yl)oxazol-5-yl)(4-(7-fluorobenzo[d]oxazol-2-yl)-6,7-dihydro-1H-imidazo[4,5-c]pyridin-5(4H)-yl)methanone]
- AC50 (A375 R408W cells): ≤ 500 nM

SMILES: O=C(c1cnn2ccccc12)N1Cc2[nH]cnc2[C@H]1c1nc2ccccc2o1 [Example 929, (S)-(4-(benzo[d]oxazol-2-yl)-4,6-dihydropyrrolo[3,4-d]imidazol-5(1H)-yl)(pyrazolo[1,5-a]pyridin-3-yl)methanone]
- AC50 (A375 R408W cells): 1000 to 5000 nM

SMILES: Cc1ccc2oc([C@@H]3c4nc[nH]c4CCN3C(=O)c3oc(-c4ccccn4)nc3C(F)F)nc2c1 [Example 737, (S)-(4-(difluoromethyl)-2-(pyridin-2-yl)oxazol-5-yl)(4-(5-methylbenzo[d]oxazol-2-yl)-6,7-dihydro-1H-imidazo[4,5-c]pyridin-5(4H)-yl)methanone]
- AC50 (A375 R408W cells): ≤ 500 nM

SMILES: CC(C)(O)c1ncc(C(=O)N2CCc3[nH]cnc3[C@H]2c2nc3c(F)cccc3o2)o1 [Example 893, (S)-(4-(4-fluorobenzo[d]oxazol-2-yl)-6,7-dihydro-1H-imidazo[4,5-c]pyridin-5(4H)-yl)(2-(2-hydroxypropan-2-yl)oxazol-5-yl)methanone]
- AC50 (A375 R408W cells): 1000 to 5000 nM

SMILES: O=C(c1ocnc1C(F)F)N1CCc2[nH]cnc2[C@@H]1c1nc2c(OC(F)(F)F)cccc2o1 [Example 535, (R)-(4-(difluoromethyl)oxazol-5-yl)(4-(4-(trifluoromethoxy)benzo[d]oxazol-2-yl)-6,7-dihydro-1H-imidazo[4,5-c]pyridin-5(4H)-yl)methanone]
- AC50 (A375 R408W cells): ≤ 500 nM

SMILES: CN1CCN(c2ccc3c(C(=O)N4CCc5[nH]cnc5[C@@H]4c4nc5cccc(F)c5o4)cnn3c2)CC1 [Example 364, (R)-(4-(7-fluorobenzo[d]oxazol-2-yl)-6,7-dihydro-1H-imidazo[4,5-c]pyridin-5(4H)-yl)(6-(4-methylpiperazin-1-yl)pyrazolo[1,5-a]pyridin-3-yl)methanone]
- AC50 (A375 R408W cells): 1000 to 5000 nM

SMILES: CC1CN(C(=O)c2oc(C(C)(C)O)nc2C(F)F)C(c2nc3cc(F)ccc3o2)c2nc[nH]c21 (stereo not shown)
- AC50 [1]: 1000 to 5000 nM

SMILES: CN1C2CCC1CN(c1ccc3c(C(=O)N4CCc5[nH]cnc5C4c4nc5cc(F)ccc5o4)cnn3c1)C2 (single isomer, unassigned)
- AC50 [1]: ≥ 5000 nM

SMILES: O=C(c1nnc(-c2cnn(C(F)F)c2)o1)N1CCc2[nH]cnc2[C@H]1c1nc2c(F)ccc(F)c2o1 [Example 801, (S)-(4-(4,7-difluorobenzo[d]oxazol-2-yl)-6,7-dihydro-1H-imidazo[4,5-c]pyridin-5(4H)-yl)(5-(1-(difluoromethyl)-1H-pyrazol-4-yl)-1,3,4-oxadiazol-2-yl)methanone]
- AC50 (A375 R408W cells): ≤ 500 nM

SMILES: O=C(CCc1nccs1)N1CCc2[nH]cnc2C1c1nc2ccc(Br)cc2o1 (stereo not shown)
- AC50 [1]: 1000 to 5000 nM

SMILES: CC(C)(O)c1ncc(C(=O)N2CCc3[nH]cnc3C2c2nc3c(F)c(F)ccc3o2)o1 (stereo not shown)
- AC50 [1]: 1000 to 5000 nM

SMILES: Cc1cccc2nc(C3c4nc[nH]c4CCN3C(=O)c3ccnn3C(C)C)oc12 (stereo not shown)
- AC50 [1]: ≥ 5000 nM

SMILES: Cc1nc(C(C)(C)O)oc1C(=O)N1CCc2[nH]cnc2[C@@H]1c1nc2c(F)cccc2o1 [Example 260, (R)-(4-(4-fluorobenzo[d]oxazol-2-yl)-6,7-dihydro-1H-imidazo[4,5-c]pyridin-5(4H)-yl)(2-(2-hydroxypropan-2-yl)-4-methyloxazol-5-yl)methanone]
- AC50 (A375 R408W cells): ≥ 5000 nM

SMILES: O=C(c1oc(-c2ccc(F)cn2)nc1C(F)F)N1CCc2[nH]cnc2[C@@H]1c1nc2cccc(F)c2o1 [Example 631, (R)-(4-(difluoromethyl)-2-(5-fluoropyridin-2-yl)oxazol-5-yl)(4-(7-fluorobenzo[d]oxazol-2-yl)-6,7-dihydro-1H-imidazo[4,5-c]pyridin-5(4H)-yl)methanone]
- AC50 (A375 R408W cells): ≤ 500 nM

SMILES: COc1ccc2oc([C@H]3c4nc[nH]c4CCN3C(=O)c3ccnn3C(F)F)nc2c1 [Example 552, (R)-(1-(difluoromethyl)-1H-pyrazol-5-yl)(4-(5-methoxybenzo[d]oxazol-2-yl)-6,7-dihydro-1H-imidazo[4,5-c]pyridin-5(4H)-yl)methanone]
- AC50 (A375 R408W cells): 1000 to 5000 nM

SMILES: Cn1cncc1-c1nnc(C(=O)N2CCc3[nH]cnc3C2c2nc3cc(F)ccc3o2)o1 (stereo not shown)
- AC50 [1]: 1000 to 5000 nM

SMILES: CC(F)(F)c1ncoc1C(=O)N1CCc2[nH]cnc2[C@@H]1c1nc2ccc(F)cc2o1 [Example 650, (R)-(4-(1,1-difluoroethyl)oxazol-5-yl)(4-(6-fluorobenzo[d]oxazol-2-yl)-6,7-dihydro-1H-imidazo[4,5-c]pyridin-5(4H)-yl)methanone]
- AC50 (A375 R408W cells): 500 to 1000 nM

SMILES: Cc1nc([C@H](C)O)oc1C(=O)N1CCc2[nH]cnc2[C@@H]1c1nc2ccc(F)cc2o1 [Example 242, ((R)-4-(6-fluorobenzo[d]oxazol-2-yl)-6,7-dihydro-1H-imidazo[4,5-c]pyridin-5(4H)-yl)(2-((S)-1-hydroxyethyl)-4-methyloxazol-5-yl)methanone]
- AC50 (A375 R408W cells): ≥ 5000 nM
